According to patent US12054497B2, “Substituted heterocyclic fused cyclic compound, preparation method therefor and pharmaceutical use thereof” (GENFLEET THERAPEUTICS (SHANGHAI) INC., priority 2019, dated 2024):

What was measured:
[1] = molecular target: KRas G12C (Homo sapiens (Human), UniProt P01116, G12C); assay: Nucleotide exchange assay (NEA)-HTRF, SOS1 catalyzed displacement of GDP by GTP (Test Example 4); format: biochemical
Method: The effects of compounds on SOS1 catalyzed displacement of GDP by GTP on KRas proteins was examined by homogeneous time-resolved fluorescence (HTRF). 30 μM 6×his labeled KRas G12C recombinant protein and 80 μM fluorochrome DY647 labeled GDP were co-incubated in a labeling buffer (1 mM DTT, 7.5 mM EDTA, 25 mM Tris-HCl, 45 mM NaCl) at 20° C. away from light for 2 hours. Protein quantification was performed after purification on the NAP-5 column to determine the concentration of KRas G12C-GDP.
1000× stock solutions of compounds at a concentration gradient of 3.16 were prepared by using DMSO, and diluted 250 times by a reaction buffer (40 mM N-2-hydroxyethylpiperazine-N-2-ethane sulfonic acid (HEPES), 10 mM MgCl2, 1 mM DTT, 0.002% Triton X-100) into 4× stock solutions of compounds. KRas G12C-GDP/Tb working solution (40 nM KRas G12C-GDP, 1×anti-his Tb) and SOS1/GTP working solution (0.2 μM SOS1, 200 μM GTP) were prepared by using the reaction buffer.
5 μl of 4×stock solution of a compound and 10 μl of KRas G12C-GDP/T working solution were added to each well of 96-well plate with white unclear bottom, and 5 μl of reaction buffer was added to the well of control group in stead of the 4×stock solution of a compound. After incubation at 20° C. away from light for 15 minutes, 5 μl of SOS1/GTP working solution was added and incubated at 20° C. away from light for 2 hours, and then a value of fluorescence intensity was read (excitation wavelength: 320 nm, and emission wavelengths: 615 nm and 665 nm). Besides, group TO was established with 10 μl of the reaction buffer and 10 μl of the KRas G12C-GDP/Tb working solution, and the value of fluorescence intensity was directly read. A relative light unit (RLU) was calculated by the following equation: RLU=(665 nm signal/615 nm signal)×10^4; and the inhibition rate (IR) of the compound was calculated by the following equation: IR (%)=(RLUcompound−RLUcontrol)/(RLUT0−RLUcontrol)×100%. The value of IC50 was calculated by fitting a gradiently diluted concentration of the compound and the corresponding cell proliferation inhibition rate using a four-parameter method.

[2] = tested on: A549 cells with Kras G12S mutation; assay: Cell proliferation inhibition experiment, 3D spheroid, CellTiter-Glo (Test Example 1); format: cell-based, human; settings: 5 days
Method: (§1) NCI-H358 was a human NSCLC cell line with Kras G12C mutation, which was cultured in a RPMI-1640 medium with 10% fetal bovine serum (FBS). A549 was a human lung adenocarcinoma cell line with Kras G12S mutation, which was cultured in an F-12K medium with 10% FBS. Cells in logarithmic growth phase were detached with trypsin and EDTA, collected and counted, and H358 was regulated to 1.8E4 cells/ml by using an RPMI-1640 medium with 2% FBS, while A549 was regulated to 8.9E3 cells/ml with an F-12K medium containing 2% FBS. 800 (45 μl) H358 cells and 400 (45 μl) A549 cells were seeded to 384-well spheroid plates, respectively, and cultured overnight to establish 3D cell models. 1000× stock solutions of compounds at a concentration gradient of 3.16 were prepared by using DMSO, and diluted 100 times by the medium with 2% FBS into 10× stock solutions of compounds. On the day after cell seeding, 5 μl of 10× stock solution of a compound was added to each well of cell culture plate, with a final concentration being 1× and a DMSO content of 0.1%. DMSO was used as the control, and the medium with 2% FBS was used as blank control group. After 5 days of cell culture with the compound, 25 μl of CellTiter-Glo working solution was added to each well, and mixed uniformly at 400 rpm and incubation for 30 minutes. After standing at room temperature for 30 minutes, 40 μl of mixed solution was transferred to a 384-well plate with white clear bottom. A value of luminescence was then read, and a cell proliferation inhibition rate (IR) (%)=(RLU control-RLU compound)/(RLU control−RLU blank)×100%. The value of IC50 was calculated by fitting a gradiently diluted concentration of the compound and the corresponding cell proliferation inhibition rate using a Prism 6 four-parameter method.

[3] = tested on: NCI-H358 cells with Kras G12C mutation; assay: as above; format: cell-based, human; settings: 5 days
Method: as §1

[4] = tested on: phosphorylated ERK in MIA PaCa2 cells with Kras G12C mutation; assay: p-ERK HTRF assay for cells (Test Example 2); format: cell-based, human; settings: Homo sapiens, MIA PaCa-2, 2 h, MIA PaCa2 cells, 2 hours with compound; read-out: p-ERK IC50
Method: MIA PaCa2 was a human pancreatic carcinoma cell line with Kras G12C mutation, which was cultured in a DMEM with 10% FBS and 2.5% Horse serum. Cells in logarithmic growth phase were detached with trypsin and EDTA, collected and counted, and 2.5E4 cells were seeded to a 96-well cell culture plate and cultured overnight. 1000× stock solutions of compounds at a concentration gradient of 3.16 were prepared by using DMSO, and diluted 200 times by the medium into 5× stock solutions of compounds. On the day after cell seeding, 5× stock solution of a compound was added to each well of cell culture plate, with a final concentration being 1× and a DMSO content of 0.1%. DMSO was used as the control. The residual culture was removed after culturing for 2 hours with the compound. To each well, 50 ul of cell lysis buffer was added and mixed uniformly and incubation for 30 minutes. Subsequently, 16 ul of mixed solution was transferred to a 96-well plate with white unclear bottom, and 16 ul of cell lysis buffer was added to the blank control group. After the completion of transfer, 4 ul of p-ERK HTRF antibody mixture was added to each well, and a value of fluorescence intensity was read after incubation for 4 hours. The inhibition rate (IR) of the compound was calculated by the following equation: IR (%)=(RLU control-RLU compound)/(RLU control−RLU blank)×100%. The value of IC50 was calculated by fitting a gradiently diluted concentration of the compound and the corresponding cell proliferation inhibition rate using a Prism 8 four-parameter method.

[5] = tested on: MIA PaCa-2 cells with Kras G12C mutation; assay: Cell proliferation inhibition experiment, 3D spheroid, CellTiter-Glo (Test Example 3); format: cell-based, human; settings: Homo sapiens, MIA PaCa-2, 120 h, 5 days, read-out: MIA-PaCa2 IC50
Method: MIA PaCa-2 was a human pancreatic carcinoma cell line with Kras G12C mutation, which was cultured in a DMEM with 10% FBS and 2.5% Horse serum. A549 was a human lung adenocarcinoma cell line with Kras G12S mutation, which was cultured in an F-12K medium with 10% FBS. Cells in logarithmic growth phase were detached with trypsin and EDTA, collected and counted, and 200 MIA PaCa-2 cells and 400 A549 cells were seeded to 384-well spheroid plates, respectively, and cultured overnight to establish 3D cell models. 1000× stock solutions of compounds at a concentration gradient of 3.16 were prepared by using DMSO, and diluted 100 times by the medium into 10× stock solutions of compounds. On the day after cell seeding, 10× stock solution of a compound was added to each well of cell culture plate, with a final concentration being 1× and a DMSO content of 0.1%. DMSO was used as the control, and the medium was used as the blank. After 5 days of cell culture with the compound, 30 μl of CellTiter-Glo working solution was added to each well, and mixed uniformly and incubation for 30 minutes. After standing at room temperature for 30 minutes, 40 μl of mixed solution was transferred to a 384-well plate with white unclear bottom. A value of luminescence intensity was then read, and a cell proliferation inhibition rate (IR) (%)=(RLU control−RLU compound)/(RLU control−RLU blank)×100%. The value of IC50 was calculated by fitting a gradiently diluted concentration of the compound and the corresponding cell proliferation inhibition rate using an XLFit four-parameter method.

[6] = tested on: subcutaneous xenograft tumor model of MIA PaCa-2; assay: In vivo pharmacodynamic experiment, tumor growth inhibition (Test Example 5); design: species or system BALB/c nude mice; settings: p.o., QD; for TGI: day 14
Method: Experimental objective: to evaluate the in vivo pharmaceutical effects of tested compounds on the subcutaneous xenograft tumor model of MIA PaCa-2.
Experimental operation: 6 to 8 weeks old female BALB/c nude mice each having the body weight of 18-20 g were chosen. MIA PaCa-2 cells were cultured in DMEM containing 10% FBS, 2.5% HS and 1% penicillin-streptomycin at 37° C. in an incubator with 5% CO2. Cells were collected. The MIA PaCa-2 cells were subcutaneously inoculated to the animals at their backs on the right, 2.0×10^6 cells (0.1 mL) for each animal. When tumor grew to 190-311 mm^3, mice with tumor having a suitable size were chosen and treated in groups, with administration dosages shown in Table 5 below. The animals were weighed on an electronic balance each day. The tumor volume was investigated by using a vernier caliper twice a week. The tumor volume was calculated by the following equation: V=0.5 a×b^2, a and b representing the long diameter and the short diameter of the tumor, respectively. The tumor volume was used to calculate a tumor growth inhibition rate (TGI), and the TGI shown in the form of a percentage was used to indicate the antineoplastic activity of a compound. The TGI was calculated by the following equation: TGI (%)=[1−avTi−0/avCi−0)]×100, with avTi−0 representing the average tumor volume of the group administrated with the compound on a specific day minus the average tumor volume of this group on the day of grouping, and avCi−0 representing the average tumor volume of the solvent control group on a specific day minus the average tumor volume of the solvent control group on the day of grouping. The tumor volume was shown in the form of an average value±standard error of mean (SEM).

Sequence of KRas G12C (P01116-2 other isoform, or with tags, fused parts or gaps G12C): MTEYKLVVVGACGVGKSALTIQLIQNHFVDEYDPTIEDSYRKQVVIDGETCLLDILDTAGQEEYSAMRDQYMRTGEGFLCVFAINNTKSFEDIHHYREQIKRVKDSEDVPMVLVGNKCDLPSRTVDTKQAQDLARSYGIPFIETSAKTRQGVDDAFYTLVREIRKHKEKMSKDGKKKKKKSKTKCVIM

Which IC50 [1] does the source give for `C=CC(=O)N1C[C@@H]2C(=O)N(C)c3c(c4cc(F)c(-c5c(O)cccc5F)nc4n(-c4c(C#N)cccc4C(C)C)c3=O)N2C[C@H]1C` (atropisomer, axis not shown) [Compound Z38-2, 2-((2R,4aR)-3-acryloyl-11-fluoro-10-(2-fluoro-6-hydroxyphenyl)-2,6-dimethyl-5,7-dioxo-2,3,4,4a,5,6-hexahydro-1H-pyrazino[1′,2′:4,5]pyrazino[2,3-c][1,8]naphthyridin-8(7H)-yl)-3-isopropylbenzonitrile] here?
The IC50 was 2150 nM.

What about the IC50 [2] of the same compound?
Its IC50 is > 30000 nM.

And the IC50 [3]?
Its IC50 is 513 nM.

For `C=CC(=O)N1CCN2c3c(c(=O)n(-c4c(C)ccnc4C(C)C)c4nc(-c5c(O)cccc5F)c(F)cc34)OC[C@H]2C1` (atropisomer, axis not shown) [Compound Z1-2], which IC50 [1] is on record?
The IC50 was 1430 nM.

What does the source list for `C=CC(=O)N1CCN2c3c(c(=O)n(-c4c(C)ccnc4C(C)C)c4nc(-c5c(O)cccc5F)c(F)cc34)N(C)C(=O)[C@H]2C1` (single isomer, unassigned) [Compound Z9-1]?
IC50 [1]: 2570 nM; IC50 ([2]; Homo sapiens, A549, 120 h): > 10000 nM; IC50 [3]: 218 nM

How did the IC50 [1] turn out when `[2H]C([2H])([2H])N1C(=O)[C@H]2CN(C(=O)C=C)CCN2c2c1c(=O)n(-c1c(C(C)C)ncnc1C(C)C)c1c(F)c(-c3c(O)cccc3F)c(Cl)cc21` (single isomer, unassigned) [Compound Z39-2] was run?
Its IC50 is 2240 nM.

What about the IC50 [2] of the same compound?
The IC50 was 7780 nM.

What about the IC50 [3] of the same compound?
The IC50 was 316 nM.

How did the IC50 [4] turn out when `C=CC(=O)N1C[C@@H]2C(=O)N(C)c3c(c4cc(Cl)c(-c5c(O)cccc5F)nc4n(-c4c(C(C)C)ncnc4C(C)C)c3=O)N2C[C@H]1C` [Compound Z23, (2R,4aR)-3-acryloyl-11-chloro-8-(4,6-diisopropylpyrimidin-5-yl)-10-(2-fluoro-6-hydroxyphenyl)-2,6-dimethyl-2,3,4,4a,6,8-hexahydro-1H-pyrazino[1′,2′:4,5]pyrazino[2,3-c][1,8]naphthyridin-5,7-dione] was run?
Its IC50 is 17 nM.

What about the IC50 ([2]; Homo sapiens, A549, 120 h) of the same compound?
The IC50 was 10500 nM.

What about the IC50 ([3]; Homo sapiens, NCI-H358, 120 h) of the same compound?
Its IC50 is 2 nM.

And the IC50 [5]?
Its IC50 is 2 nM.

And the “Tumor Volume on Day 14 after Administration” value (“Tumor Volume” for short) ([6]; 1 mg/kg)?
Its value is 194.65 mm^3.

And the TGI ([6]; 1 mg/kg)?
Its TGI is 113.2%.

And the “Tumor Volume” value ([6]; 3 mg/kg)?
Its value is 59.52 mm^3.

What about the TGI ([6]; 3 mg/kg) of the same compound?
The TGI was 143.5%.

And the “Tumor Volume” value ([6]; 10 mg/kg)?
The value was 47.32 mm^3.

And the TGI ([6]; 10 mg/kg)?
The TGI was 149.2%.

How did the IC50 [1] turn out when `C=CC(=O)N1CCN2c3c(c(=O)n(-c4c(C)ccnc4C(C)C)c4nc(-c5c(O)cccc5F)c(Cl)cc34)N(C)C(=O)[C@H]2C1` (single isomer, unassigned) [Compound Z25-1] was run?
Its IC50 is 951 nM.

And the IC50 ([2]; Homo sapiens, A549, 120 h)?
Its IC50 is > 30000 nM.

And the IC50 [3]?
Its IC50 is 50 nM.

With `[2H]C([2H])([2H])N1C(=O)[C@H]2CN(C(=O)C=C)CCN2c2c1c(=O)n(-c1c(C)ccnc1C(C)C)c1nc(-c3c(O)cccc3F)c(Cl)cc21` (single isomer, unassigned) [Compound Z26-1] as the compound, how does the IC50 [1] read?
Its IC50 is 868 nM.

And the IC50 [2]?
Its IC50 is > 30000 nM.

What about the IC50 [3] of the same compound?
The IC50 was 42 nM.

What does the source list for `C=CC(=O)N1CCN2c3c(c(=O)n(-c4c(C)ncnc4C(C)C)c4nc(-c5c(O)cccc5F)c(F)cc34)N(C)C(=O)[C@H]2C1` (single isomer, unassigned) [Compound Z21-2]?
IC50 [1]: 3940 nM; IC50 [2]: > 30000 nM; IC50 [3]: 407 nM

With `C=CC(=O)N1CCN2c3c(c(=O)n(-c4c(C(C)C)ncnc4C(C)C)c4c(F)c(-c5c(O)cccc5F)c(Cl)cc34)NC(=O)[C@H]2C1` (single isomer, unassigned) [Compound Z37-2] as the compound, how does the IC50 [1] read?
Its IC50 is 1900 nM.

And the IC50 [2]?
Its IC50 is 3320 nM.

And the IC50 [3]?
Its IC50 is 165 nM.
